The text below walks through data of patent US20230047208A1, “RNA Splicing Modulation” (The General Hospital Corporation, priority 2020, published 2023).

One experiment concerns ELP1. Description: In vivo ELP1 splicing correction in humanized transgenic mouse model.
Experiment [1] has as its system CFTR gene c.2988G>A, exon 18. The experiment in a line: CFTR c.2988G>A minigene (EMG-MUT) exon 18 splicing in HEK293 cells, RT-PCR. To be noted: 60 μM, 24 hours. The experiment is classed as cell-based. From the text:
FIGS. 4C-4F Upper row: The sequences at the 5′ splice site of Exon X in patient cells and minigene constructs are shown (FIGS. 4C-4F). The sequences around the 5′ splice site of Exon X are shown in LOGO plots, with the closely matched CNN motifs indicated beneath the plots. […] Middle row: RT-PCR experiments validated treatment responses in patient cell lines carrying specific splice site mutations. The upper bands indicate the isoform in which the middle Exon X is included while the lower bands indicate the isoform in which the middle Exon X is skipped. Each set of gels is one of the triplicates used to generate the bar plots beneath. […] The statistical significance, as shown in FIGS. 4C-4F, was determined via two-tailed, unpaired Student's test: *p<0.05; **p<0.01; ***p<0.001.
In another example from Table 18, the ClinVar and CNN model predictions related to the CFTR gene carrying a c.2988G>A mutation (see FIG. 4D) were confirmed by stably expressing a minigene containing the full length CFTR coding sequence carrying the c.2988G>A mutation and flanking introns (EMG-MUT)^63 in HEK293 cells. The c.2988G>A mutation was reported to cause skipping of exon 18 in the CFTR gene and is associated with abnormal CFTR function and a mild form of Cystic Fibrosis^64. Using RT-PCR, the minigene was confirmed to harbor the mutation (EMG-MUT), showing only 5% exon 18 inclusion.

For a further experiment, the system named is SETD5 minigene, Exon X. The experiment in a line: SETD5 minigene splicing assay, RT-PCR. The experiment is classed as cell-based. Particulars: mutated SETD5 minigene. From the text:
FIGS. 3E-3G Upper row: The length of the exon triplets cloned into minigenes constructs are shown. The flanking sequences of the 5′ splice sites of Exon X are shown in LOGO plots. The height of each nucleotide was estimated using in silico saturated mutagenesis, with the corresponding closely matched CNN Motifs indicated below the plots. […] Middle row: Splicing changes for Exon X in both wildtype and mutated exon triplets, predicted by the CNN model (left) and measured by RT-PCR of the minigene (right). The RT-PCR experiments were performed in duplicate and independently repeated three times for each minigene to make the bar plots (two-tailed, unpaired Student's t test). Bottom row: Example of splicing changes induced by treatment with Compound (I) in the minigene splicing assays. The percentage for Exon X inclusion is indicated beneath each lane, from treated and untreated conditions in both wildtype and mutated minigenes. […] The statistical significance, as shown in FIGS. 3E-3G, was determined via two-tailed, unpaired Student's test: *p<0.05; **p<0.01; ***p<0.001. […]
Wild-type and mutant double-stranded DNA (dsDNA) fragments, selected based on low nucleotide length and exon-skipping probability, were ordered through GENEWIZ (FragmentGENE). […] Concentrations were determined using a nanodrop spectrometer.

SMILES strings stand for the structures.

Take `Clc1nc(NCc2ccncc2)c2cc[nH]c2n1` [Compound (I), 2-chloro-N-(pyridin-4-ylmethyl)-7H-pyrrolo[2,3-d]pyrimidin-4-amine]: in the experiment with ELP1, the “ELP1 protein in tissues” value is recorded as “increase of ELP1 protein in all tissues, including the brain”. In experiment [1], the “exon 18 inclusion in EMG-MUT” value was “significantly increased exon inclusion”. The “Exon X splicing response confirmed by RT-PCR” value in the experiment on SETD5 minigene, Exon X is recorded as “exclusion”.
